According to patent publication US20230053688A1, “METHODS TO ALTER LATENCY IN EBV+ MALIGNANCIES” (Cornell University, priority 2020, published 2023):
Counter-ions that a name gives are not always drawn. Like-named read-outs stand apart in the source and are kept apart here.

System: LMP1 expression in Kem I cells
Assay: microbe, parasite or virus in culture
Assay type: cell-based, EBV
Conditions: for fold induction at 2.5 µM / fold induction at 1 µM: human gammaherpesvirus 4, 48 h
[1] = Kem I cells, 2.5 uM, 48 hours, average of replicates 1 and 2
[2] = Kem I cells, 2.5 uM, 48 hours, fold change in LMP1 transcript vs vehicle
[3] = read-out: Average LMP1 Fold Increase, Kem I cells, 2.5 uM, 48 hours, average of replicates 1 and 2
[4] = read-out: Replicate 1-LMP1 Fold Increase, Kem I cells, 2.5 uM, 48 hours, fold change in LMP1 transcript vs vehicle
[5] = read-out: Replicate 2-LMP1 Fold Increase, Kem I cells, 2.5 uM, 48 hours, fold change in LMP1 transcript vs vehicle

Row | SMILES | Average LMP1 Fold Increase [1] | Replicate 1-LMP1 Fold Increase [2] | Replicate 2-LMP1 Fold Increase [2] | fold induction at 2.5 µM [3] | fold induction at 2.5 µM [4] | fold induction at 2.5 µM [5] | other results
1 | CCCC(=O)Nc1cccc(NC(=O)c2ccccc2Br)c1 [ML161] | 0.83 | 1.11 | 0.54 | – | – | – | –
2 | COc1ccc(-c2cnc3c(-c4cccc5ncccc45)cnn3c2)cc1 [ML347] | 0.34 | 0.19 | 0.49 | – | – | – | –
3 | CC(C)C[C@H](NC(=O)CNC(=O)c1cc(Cl)ccc1Cl)B(O)O [MLN2238] | – | – | – | 112 | 86.8 | 138 | –
4 | O=C(O)c1ccc(Nc2ncc3c(n2)-c2ccc(Cl)cc2C(c2c(F)cccc2F)=NC3)cc1 [MLN8054] | – | – | – | 0.37 | 0.27 | 0.47 | –
5 | CCC(CC)(NC(=O)C(C)C)C(=O)N[C@@H](CCCN=C(N)N)C(=O)NC1(C(=O)NC(c2ccc(F)cc2)c2ccc(F)cc2)CCCC1 [MM-102] | 0.27 | 0.27 | 0.27 | – | – | – | –
6 | S=C=Nc1cccc(NC(=S)NCCCCNC(=S)Nc2cccc(N=C=S)c2)c1 [MRS 2578] | 0.47 | 0.64 | 0.31 | – | – | – | –
7 | COc1cc(-n2c(=S)[nH]c3ccccc3c2=O)c(Cl)cc1Cl [Mdivi-1] | 0.64 | 0.51 | 0.77 | – | – | – | –
8 | CC12CC3CC(C)(C1)CC(N)(C3)C2 [Memantine HCl] | – | – | – | 0.42 | 0.55 | 0.3 | –
9 | Nc1nc(CC(=O)Nc2ccc(CCNC[C@H](O)c3ccccc3)cc2)cs1 [Mirabegron] | – | – | – | 0.75 | 0.74 | 0.76 | –
10 | O=C(NCCN1CCOCC1)c1ccc(Cl)cc1 [Moclobemide (Ro 111163)] | 0.55 | 0.28 | 0.81 | – | – | – | –
11 | Cc1ccccc1C(=O)Nc1ccc(C(=O)N2CCCC(N(C)C)c3ccccc32)cc1 (stereo not drawn) [Mozavaptan] | – | – | – | 0.61 | 0.32 | 0.9 | –
12 | FC(F)(F)c1ccc(/C=C/c2nc(COc3ccc(CCCCn4ccnn4)cc3)co2)cc1 [Mubritinib (TAK 165)] | – | – | – | – | – | – | Average LMP1 Fold Increase: 0.68; Replicate 1-LMP1 Fold Increase: 0.74; Replicate 2-LMP1 Fold Increase: 0.62
13 | CCCCCCCCCCCCCCCCn1cc[n+](Cc2ccccc2)c1C.[I-] [NH125] | 0.70 | 0.94 | 0.46 | – | – | – | –
14 | Cc1cc(OCc2nnc(SC3CCCC3)n2-c2cccnc2)ccc1-c1ccc(S(C)(=O)=O)cc1 [NMS-873] | – | – | – | 1 | 1.05 | 0.95 | –
15 | CC(C)(Cc1ccc2ccccc2c1)NC[C@@H](O)COc1cccc(Cl)c1C#N [NPS-2143] | 0.74 | 0.87 | 0.62 | – | – | – | –
16 | Cc1ccc(S(=O)(=O)c2ccc([N+](=O)[O-])o2)cc1 [NSC697923] | 0.09 | 0.10 | 0.09 | – | – | – | –
17 | CCN(CC)CCCC(C)Nc1nc(C)cc(Nc2ccc3nc(C)cc(N)c3c2)n1 (stereo not drawn) [NSC 23766] | 0.82 | 0.62 | 1.01 | – | – | – | –
18 | C/C(=N\NC(=S)N1CCC1)c1ccccn1 [NSC 319726] | 19.87 | 7.26 | 32.48 | – | – | – | –
19 | CCCC(C)NC(=O)c1ccc(Cl)c(Cl)c1 (stereo not drawn) [NSC 405020] | 0.39 | 0.50 | 0.28 | – | – | – | –
20 | O=c1cc(N2CCOCC2)oc2c1ccc1ccccc12 [NU7026] | 0.77 | 0.47 | 1.07 | – | – | – | –
21 | Nc1ncnc2c1c(-c1cccc(OCc3ccccc3)c1)cn2C1CC(CN2CCCC2)C1 (stereo not drawn) [NVP-ADW742] | 0.40 | 0.27 | 0.53 | – | – | – | –
22 | COc1ccccc1N1CCN(CC(O)COc2cccc3ccccc23)CC1 (stereo not drawn) [Naftopidil] | – | – | – | 1.15 | 1.36 | 0.95 | –
23 | O=C1CC[C@@]2(O)[C@H]3Cc4ccc(O)c5c4[C@@]2(CCN3CC2CC2)[C@H]1O5 [Naltrexone HCl] | – | – | – | 0.27 | 0.34 | 0.19 | –

Row | SMILES | Average LMP1 Fold Increase [1] | Replicate 1-LMP1 Fold Increase [2] | Replicate 2-LMP1 Fold Increase [2] | fold induction at 2.5 µM [3] | fold induction at 2.5 µM [4] | fold induction at 2.5 µM [5] | other results
24 | COc1ccc2cc([C@H](C)C(=O)O)ccc2c1 [Naproxen] | – | – | – | 0.62 | 0.69 | 0.56 | –
25 | OC(CNCC(O)C1CCc2cc(F)ccc2O1)C1CCc2cc(F)ccc2O1 (stereo not drawn) [Nebivolol] | – | – | – | 1.16 | 0.83 | 1.49 | –
26 | CN1C(=O)C(Cc2c[nH]c3ccccc23)NC1=S (stereo not drawn) [Necrostatin-1] | 1.08 | 0.99 | 1.17 | – | – | – | –
27 | Cc1cn(-c2cc(NC(=O)c3ccc(C)c(Nc4nccc(-c5cccnc5)n4)c3)cc(C(F)(F)F)c2)cn1 [Nilotinib (AMN-107)] | 0.27 | 0.20 | 0.33 | – | – | – | –
28 | COC(=O)C1=C(C#N)NC(C)=C(C(=O)OC(C)C)C1c1cccc([N+](=O)[O-])c1 (stereo not drawn) [Nilvadipine] | – | – | – | 0.72 | 0.96 | 0.47 | –
29 | Cc1c(Cc2ccc3ccccc3n2)c2cc(F)ccc2n1CC(=O)O [OC000459] | – | – | – | 0.56 | 0.64 | 0.48 | –
30 | C#Cc1cccc(Nc2ncnc3cc(OCCOC)c(OCCO)cc23)c1 [OSI-420] | 0.66 | 0.84 | 0.49 | – | – | – | –
31 | C[C@]1(O)C[C@@H](c2nc(-c3ccc4ccc(-c5ccccc5)nc4c3)c3c(N)nccn32)C1 [OSI-906 (Linsitinib)] | 0.81 | 0.68 | 0.94 | – | – | – | –
32 | NCC(=O)Nc1ccc(-n2nc(C(F)(F)F)cc2-c2ccc3c(ccc4ccccc43)c2)cc1 [OSU-03012 (AR-12)] | 0.95 | 0.79 | 1.12 | – | – | – | –
33 | Cc1sc2c(c1C)C(c1ccc(Cl)cc1)=N[C@@H](CC(=O)Nc1ccc(O)cc1)c1nnc(C)n1-2 [OTX015] | – | – | – | 0.63 | 0.14 | 1.12 | –
34 | COC1=CC(c2cc3ccccc3[nH]2)=N/C1=C\c1[nH]c(C)cc1C [Obatoclax] | – | – | – | – | – | – | fold induction at 1 µM (read-out: Average LMP1 Fold Increase, Kem I cells, 1 uM, 48 hours, average of replicates 1 and 2): 13.7; fold induction at 1 µM (read-out: Replicate 1-LMP1 Fold Increase, Kem I cells, 1 uM, 48 hours, fold change in LMP1 transcript vs vehicle): 24.3; fold induction at 1 µM (read-out: Replicate 2-LMP1 Fold Increase, Kem I cells, 1 uM, 48 hours, fold change in LMP1 transcript vs vehicle): 3.03
35 | CC(C)(F)C[C@H](N[C@@H](c1ccc(-c2ccc(S(C)(=O)=O)cc2)cc1)C(F)(F)F)C(=O)NC1(C#N)CC1 [Odanacatib (MK-0822)] | 0.56 | 0.58 | 0.54 | – | – | – | –
36 | CC[C@@H]1/C=C/C=C/C[C@H](C)[C@H](O)[C@](C)(O)C(=O)[C@H](C)[C@@H](O)[C@H](C)C(=O)[C@H](C)[C@@H](O)[C@H](C)/C=C/C(=O)O[C@H]2[C@@H](C)[C@@H](CC1)O[C@@]1(CC[C@@H](C)[C@@H](C[C@H](C)O)O1)[C@@H]2C [Oligomycin A] | 1.40 | 1.03 | 1.76 | – | – | – | –
37 | CCc1c(C(=O)NCCc2ccc(N3CCCCC3)cc2)[nH]c2ccc(Cl)cc12 [Org 27569] | 0.51 | 0.49 | 0.53 | – | – | – | –
38 | C[C@@H]1O[C@@H](O[C@H]2C[C@@H](O)[C@]3(CO)[C@H]4[C@H](O)C[C@]5(C)[C@@H](C6=CC(=O)OC6)CC[C@]5(O)[C@@H]4CC[C@]3(O)C2)[C@H](O)[C@H](O)[C@H]1O [Ouabain] | – | – | – | 92.1 | 22.8 | 161 | –
39 | NC(=O)N1c2ccccc2CC(=O)c2ccccc21 [Oxcarbazepine] | – | – | – | 0.46 | 0.54 | 0.38 | –
40 | Cc1cc(C(C)(C)C)c(O)c(C)c1CC1=NCCN1 [Oxymetazoline HCl] | – | – | – | 0.66 | 0.6 | 0.72 | –
41 | O=C(O)/C=C/c1ccc(Cn2ccnc2)cc1 [Ozagrel HCl] | 0.79 | 0.85 | 0.72 | – | – | – | –
42 | O=C(O)/C=C/c1ccc(Cn2ccnc2)cc1 [Ozagrel] | – | – | 1.55 | 1.41 | 1.27 | – | –
43 | CC(=O)c1cc([N+](=O)[O-])c(Sc2ccc(F)cc2F)s1 [P22077] | 0.25 | 0.20 | 0.29 | – | – | – | –
44 | C=CCc1cccc(/C=N/NC(=O)CN2CCN(Cc3ccccc3)CC2)c1O [PAC-1] | 0.78 | 0.78 | 0.78 | – | – | – | –
45 | O=C(NOCC1CC1)c1ccc(F)c(F)c1Nc1ccc(I)cc1Cl [PD184352 (CI-1040)] | 0.66 | 0.65 | 0.66 | – | – | – | –
46 | O=C(NOC[C@H](O)CO)c1ccc(F)c(F)c1Nc1ccc(I)cc1F [PD0325901] | – | – | – | 0.47 | 0.68 | 0.27 | –
